Test results taken from patent US20080194546A1, “Pyrido-, Pyrazo- and Pyrimido-Pyrimidine Derivatives as mTOR Inhibitors” (KuDOS Pharmaceuticals Limited, priority 2005, published 2008).
Read-outs that look alike come from different tables or passages of the source.

Experiments:
[1] = biological target: recombinant mTOR (FLAG-tagged, amino acid residues 1362 to 2549) (Homo sapiens, UniProt P42345); assay: Alternative Enzyme Assay: AlphaScreen, inhibition of phosphorylation by recombinant mTOR; type: biochemical
[2] = test system: phosphorylation of Serine 473 in Akt in MDA-MB-468 cells; assay: In Vitro phospho-Ser473 Akt Assay (Acumen Explorer); type: cell-based; settings: Homo sapiens, MDA-MB-468 cells
[3] = biological target: T1, mTOR (Homo sapiens, UniProt P42345); assay: Biological Assay: mTOR enzyme activity, mTOR immunoprecipitated from HeLa cell cytoplasmic extract, recombinant PHAS-1 as substrate; type: biochemical
T1 construct: mTOR protein was isolated from HeLa cell cytoplasmic extract by immunoprecipitation; endogenous in cells; host or cells: HeLa cell cytoplasmic extract (immunoprecipitate)

[4] = Alternative Enzyme Assay, upper bounds, read-out: IC50 values against mTOR
[5] = Alternative Enzyme Assay, read-out: IC50 values against mTOR
[6] = 2 hours, read-out: IC50, phospho-Ser473 Akt assay (cellular IC50, measured by pAkt)
[7] = mTOR from HeLa extract, PHAS-1 substrate, read-out: IC50, tested in the Biological Assay
[8] = compounds of Formula I(B), read-out: IC50 values against mTOR (phospho-Ser473 Akt assay)
[9] = AlphaScreen, ATP 20 μM, read-out: IC50, tested in Alternative Enzyme Assay

Compound	IC50 [1, 4] [nM]	IC50 [1, 5] [nM]	IC50 [2, 6] [nM]	other results
C/C(=N/O)c1cccc(-c2ccc3c(N4CCOCC4)nc(N4C[C@@H](C)O[C@@H](C)C4)nc3n2)c1 [Example 1bh]		< 300	< 25000	
C[C@@H]1CN(c2nc(N3CCOCC3)c3ccc(-c4cccc(/C=N/O)c4)nc3n2)C[C@H](C)O1 [Example 1bg]		< 300	< 2500	
CCOc1ccc(-c2ccc3c(N4CCOCC4)nc(N4C[C@@H](C)O[C@@H](C)C4)nc3n2)cc1 [Example 1br]	< 1000		< 2500	
C[C@@H]1CN(c2nc(N3CCOCC3)c3ccc(-c4ccoc4CO)nc3n2)C[C@H](C)O1 [Example 1bi]		< 300	< 25000	
Clc1ccc(-c2ccc3c(N4CCOCC4)nc(-c4cccc(-c5ccccc5)c4)nc3n2)cc1 [Example 9aa]	< 1000		< 25000	
C[C@@H]1CN(c2nc(N3CCOCC3)c3ccc(-c4ccc(OCCCO)cc4)nc3n2)C[C@H](C)O1 [Example 1bm]	< 1000			
C[C@@H]1CN(c2nc(N3CCOCC3)c3ccc(-c4ccc(OCC(C)(C)C)cc4)nc3n2)C[C@H](C)O1 [Example 1bo]	< 1000			
NC(=O)c1cccc(-c2nc(N3CCOCC3)c3ccc(-c4ccc(Cl)cc4)nc3n2)c1 [Example 9ac]	< 10000			
C[C@@H]1CN(c2nc(N3CCOCC3)c3ccc(-c4ccc(OCC5CCCO5)cc4)nc3n2)C[C@H](C)O1 (stereo partly drawn) [Example 1bt]	< 1000			
COc1ccc(-c2ccc3c(N4CCOCC4)nc(-c4cc(N)cc(C(=O)O)c4)nc3n2)cc1CO [Example 9a]	< 10000	< 300	< 25000	
COc1ccc(-c2ccc3c(N4CCOCC4)nc(-c4cccc(CO)c4)nc3n2)cc1CO [Example 9ae]	< 10000	< 300		
C[C@@H]1CN(c2nc(N3CCOCC3)c3ccc(-c4ccc(OCc5ccccc5)cc4)nc3n2)C[C@H](C)O1 [Example 1bf]		< 300		
C[C@@H]1CN(c2nc(N3CCOCC3)c3ccc(-c4ccc(OCC(C)(C)CO)cc4)nc3n2)C[C@H](C)O1 [Example 1bp]	< 1000			
C[C@H]1COCCN1c1nc(N2CCOCC2)c2ccc(-c3ccc(Cl)cc3)nc2n1 [Example 1be]	< 10000	< 300	< 2500	
CC(C)Oc1ccc(-c2ccc3c(N4CCOCC4)nc(N4C[C@@H](C)O[C@@H](C)C4)nc3n2)cc1 [Example 1bd]	< 10000	< 300	< 25000	
COc1ccc(-c2ccc3c(N4CCOCC4)nc(-c4cc(C(=O)O)cc([N+](=O)[O-])c4)nc3n2)cc1CO [Example 9b]	< 10000	< 300		
C[C@@H]1CN(c2nc(N3CCOCC3)c3ccc(-c4ccc(Cl)cc4)nc3n2)C[C@H](C)O1 [Example 1b]				IC50 ([3]; Biological Assay, upper bounds, read-out: IC50 values against mTOR): < 100 nM; IC50 [1, 9]: 57 nM
C[C@@H]1CN(c2nc(N3CCOCC3)c3ccc(-c4ccc(OC5C=CCCC5)cc4)nc3n2)C[C@H](C)O1 (stereo partly drawn) [Example 1bl]	< 10000			
CCCOc1ccc(-c2ccc3c(N4CCOCC4)nc(N4C[C@@H](C)O[C@@H](C)C4)nc3n2)cc1 [Example 1bn]	< 1000			
COC(=O)c1cccc(-c2nc(N3CCOCC3)c3ccc(-c4ccc(Cl)cc4)nc3n2)c1 [Example 9ad]	< 1000			
C/C=C/COc1ccc(-c2ccc3c(N4CCOCC4)nc(N4C[C@@H](C)O[C@@H](C)C4)nc3n2)cc1 [Example 1bq]	< 1000			
CC(Oc1ccc(-c2ccc3c(N4CCOCC4)nc(N4C[C@@H](C)O[C@@H](C)C4)nc3n2)cc1)c1ccccc1 (stereo partly drawn) [Example 1bv]	< 10000			
C[C@@H]1CN(c2nc(N3CCOCC3)c3ccc(-c4ccc(OCC5CCCCC5)cc4)nc3n2)C[C@H](C)O1 [Example 1bk]	< 1000			
COc1ccc(-c2ccc3c(N4CCOCC4)ncnc3n2)cc1CO [Example 1bj]		< 300	< 25000	

Now from value to compound, other results behind:

IC50 [1, 4] [nM]	IC50 [1, 5] [nM]	IC50 [2, 6] [nM]	Compound	other results
< 10000	< 300	< 2500	COc1ccc(-c2ccc3c(N4CCOCC4)nc(-c4cccc(C=O)c4)nc3n2)cc1CO [Example 9g]	
< 1000		< 25000	COc1ccc(-c2ccc3c(N4CCOCC4)nc(-c4cccc(C(F)(F)F)c4)nc3n2)cc1CO [Example 9r]	
< 10000	< 300	< 25000	COc1ccc(-c2ccc3c(N4CCOCC4)nc(-c4cccc(C#N)c4)nc3n2)cc1CO [Example 9j]	
	< 300		CCC1CCCCN1c1nc(N2CCOC[C@@H]2C)c2ccc(-c3ccc(OC)c(CO)c3)nc2n1 (stereo partly drawn) [Example 11c]	IC50 [3, 7]: 1.84 nM; IC50 [2, 8]: < 100 nM
< 1000		< 2500	OCc1cccc(-c2nc(N3CCOCC3)c3ccc(-c4ccc(Cl)cc4)nc3n2)c1 [Example 9m]	
	< 300	< 2500	COc1ccc(-c2ccc3c(N4CCOCC4)nc(-c4cccc(C(N)=O)c4)nc3n2)cc1CO [Example 9k]	
	< 100		COc1ccc(-c2ccc3c(N4CCOC[C@@H]4C)nc(N4C[C@@H](C)O[C@@H](C)C4)nc3n2)cc1CO [Example 11b]	IC50 [3, 7]: 1.85 nM; IC50 [2, 8]: < 100 nM
< 10000			Cc1cccc(-c2nc(N3CCOCC3)c3ccc(-c4ccc(Cl)cc4)nc3n2)c1 [Example 9y]	
	< 300		C[C@H]1COCCN1c1nc(N2CCOC[C@@H]2C)c2ccc(-c3cccc(Cl)n3)nc2n1 [Example 11v]	IC50 [1, 9]: 180 nM; IC50 ([2]; compounds of Formula I(B), upper bounds, read-out: IC50 values against mTOR (phospho-Ser473 Akt assay)): < 11000 nM
	< 300	< 2500	COc1ccc(-c2ccc3c(N4CCOCC4)nc(-c4cccc(N)c4)nc3n2)cc1CO [Example 9l]	
	< 300	< 2500	COCc1cccc(-c2nc(N3CCOCC3)c3ccc(-c4ccc(OC)c(CO)c4)nc3n2)c1 [Example 9h]	
< 10000			Clc1ccc(-c2ccc3c(N4CCOCC4)nc(-c4cccnc4)nc3n2)cc1 [Example 9t]	
	< 300		C[C@H]1COCCN1c1nc(N2CCOC[C@@H]2C)c2ccc(-c3ccc(F)c(C#N)c3)nc2n1 [Example 11av, 5-[2,4-bis-((S)-3-methyl-morpholin-4-yl)-pyrido[2,3-d]pyrimidin-7-yl]-2-fluoro-benzonitrile]	IC50 [2, 8]: < 300 nM
< 10000			Clc1ccc(-c2ccc3c(N4CCOCC4)nc(-c4ccco4)nc3n2)cc1 [Example 9x]	
< 10000	< 300	< 25000	COc1ccc(-c2ccc3c(N4CCOCC4)nc(-c4cccc(C)c4)nc3n2)cc1CO [Example 9d]	
< 10000	< 300	< 25000	COc1ccc(-c2ccc3c(N4CCOCC4)nc(-c4ccco4)nc3n2)cc1CO [Example 9f]	
< 1000		< 2500	COc1ccc(-c2ccc3c(N4CCOCC4)nc(-c4cccc(CN)c4)nc3n2)cc1CO [Example 9n]	
	< 100		COc1ccc(-c2ccc3c(N4CCOC[C@@H]4C)nc(-c4cccc(N)c4)nc3n2)cc1CO [Example 29f]	IC50 [1, 9]: 96 nM; IC50 [2, 8]: < 300 nM
< 10000	< 300	< 2500	COc1ccc(-c2ccc3c(N4CCOCC4)nc(-c4cccc(O)c4)nc3n2)cc1CO [Example 9i]	
< 10000			COc1ccc(-c2ccc3c(N4CCOCC4)nc(-c4cccc(-c5ccccc5)c4)nc3n2)cc1CO [Example 9o]	
< 10000	< 300	< 25000	COc1cccc(-c2nc(N3CCOCC3)c3ccc(-c4ccc(OC)c(CO)c4)nc3n2)c1 [Example 9e]	
< 1000			FC(F)(F)c1cccc(-c2nc(N3CCOCC3)c3ccc(-c4ccc(Cl)cc4)nc3n2)c1 [Example 9p]	
< 10000	< 300		COc1ccc(-c2ccc3c(N4CCOCC4)nc(-c4cccc([N+](=O)[O-])c4)nc3n2)cc1CO [Example 9c]	
